Source: patent US12344597B2, “Alkoxy-substituted pyridinyl derivatives as LPA1 receptor antagonists and their use in the treatment of fibrosis” (IDORSIA PHARMACEUTICALS LTD, priority 2018, dated 2025)
Counter-ions that a name gives are not always drawn.

Molecular target: human LPA1 receptor (Homo sapiens (Human), UniProt Q92633)
Test: Beta-arrestin recruitment assay to determine IC50 values for human LPAR1
Format: cell-based
Conditions: antagonist mode, Tango EDG2-bla U2OS cells, LPA 18:1 500 nM final
Method in brief: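 Antagonist IC50 = concentration giving 50% inhibition of maximal LPA response. Read-out is beta-lactamase reporter activity after arrestin-protease recruitment in U2OS cells bearing LPA1-TEV-Gal4-VP16 construct; cells pre-incubated 20 h, 37 °C, 5% CO2.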

Sequence of human LPA1 receptor (Q92633 whole entry): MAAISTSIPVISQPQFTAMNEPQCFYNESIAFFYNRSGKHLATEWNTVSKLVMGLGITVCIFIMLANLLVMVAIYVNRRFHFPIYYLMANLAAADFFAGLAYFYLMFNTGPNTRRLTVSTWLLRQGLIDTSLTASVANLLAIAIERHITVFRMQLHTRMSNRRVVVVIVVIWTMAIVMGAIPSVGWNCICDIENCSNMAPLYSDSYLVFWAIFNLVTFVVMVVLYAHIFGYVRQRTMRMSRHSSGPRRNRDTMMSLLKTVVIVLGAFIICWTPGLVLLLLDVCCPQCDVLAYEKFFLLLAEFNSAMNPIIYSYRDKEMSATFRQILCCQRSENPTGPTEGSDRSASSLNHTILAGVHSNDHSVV

Row | Molecule | IC50
1 | Cc1ccc(NC(=O)C2(c3ccccc3C(C)C)CCNCC2)c(OC(F)F)n1 [Ex 4, N-(2-(difluoromethoxy)-6-methylpyridin-3-yl)-4-(2-isopropylphenyl)piperidine-4-carboxamide] | 8 nM
2 | Cc1ccc(NC(=O)C2(c3ccccc3C(C)C)CN(CCCC(C)(C)N)C2)c(OC(F)F)n1 [Ex 11-94, 1-(4-amino-4-methylpentyl)-N-(2-(difluoromethoxy)-6-methylpyridin-3-yl)-3-(2-isopropylphenyl)azetidine-3-carboxamide] | 64 nM
3 | Cc1ccc(NC(=O)C2(c3ccccc3C(C)C)CCN(C(=O)NCc3c[nH]cn3)CC2)c(OC(F)F)n1 [Ex 17-3, N1-((1H-imidazol-4-yl)methyl)-N4-(2-(difluoromethoxy)-6-methylpyridin-3-yl)-4-(2-isopropylphenyl)piperidine-1,4-carboxamide] | 8 nM
4 | COc1cc(Br)cnc1NC(=O)C1(c2ccccc2C(C)C)CNC1 [Ex 71, N-(5-bromo-3-methoxypyridin-2-yl)-3-(2-isopropylphenyl)azetidine-3-carboxamide] | 564 nM
5 | Cc1ccc(NC(=O)C2(c3ccccc3C(C)C)CN(CCO)C2)c(OC(F)F)n1 [Ex 11-2, N-(2-(difluoromethoxy)-6-methylpyridin-3-yl)-1-(2-hydroxyethyl)-3-(2-isopropylphenyl)azetidine-3-carboxamide] | 5 nM
6 | Cc1ccc(NC(=O)C2(c3ccccc3C(C)C)CN(C(=O)CN(CC(=O)O)C3CC3)C2)c(OC(F)F)n1 [Ex 43, N-cyclopropyl-N-(2-(3-((2-(difluoromethoxy)-6-methylpyridin-3-yl)carbamoyl)-3-(2-isopropylphenyl)azetidin-1-yl)-2-oxoethyl)glycine] | 14 nM
7 | Cc1ccc(NC(=O)C2(c3nccnc3C(C)C)CN(S(N)(=O)=O)C2)c(OC(F)F)n1 [Ex 69, N-(2-(difluoromethoxy)-6-methylpyridin-3-yl)-3-(3-isopropylpyrazin-2-yl)-1-sulfamoylazetidine-3-carboxamide] | 27 nM
8 | Cc1ccc(NC(=O)C2(c3ccccc3C(C)C)CN(Cc3cc(C(=O)O)no3)C2)c(OC(F)F)n1 [Ex 11-35, 5-((3-((2-(difluoromethoxy)-6-methylpyridin-3-yl)carbamoyl)-3-(2-isopropylphenyl)azetidin-1-yl)methyl)isoxazole-3-carboxylic acid] | 43 nM
9 | N-(6-ethoxy-2-methoxypyridin-3-yl)-3-(2-isopropylphenyl)azetidine-3-carboxamide [Ex 9] | 163 nM
10 | CC(C)c1ccccc1C1(C(=O)Nc2cccnc2OC(F)F)CNC1 [Ex 7, N-(2-(difluoromethoxy)pyridin-3-yl)-3-(2-isopropylphenyl)azetidine-3-carboxamide hydrochloride] | 413 nM
11 | COc1ncccc1NC(=O)C1(c2ccccc2)CNC1 [Ex 85, N-(2-methoxypyridin-3-yl)-3-phenylazetidine-3-carboxamide, reference compound] | > 10000 nM
12 | Cc1ccc(NC(=O)C2(c3ccccc3C(C)C)CN(C3=NC(=O)CO3)C2)c(OC(F)F)n1 [Ex 19, N-(2-(difluoromethoxy)-6-methylpyridin-3-yl)-3-(2-isopropylphenyl)-1-(4-oxo-4,5-dihydrooxazol-2-yl)azetidine-3-carboxamide] | 4 nM
13 | Cc1ccc(NC(=O)C2(c3ccccc3C(C)C)CN(CC(N)=O)C2)c(OC(F)F)n1 [Ex 11-15, 1-(2-amino-2-oxoethyl)-N-(2-(difluoromethoxy)-6-methylpyridin-3-yl)-3-(2-isopropylphenyl)azetidine-3-carboxamide] | 22 nM

Results, then the molecule that gave them:

Row | IC50 | Molecule
14 | 7 nM | Cc1ccc(NC(=O)C2(c3ccccc3C(C)C)CN(S(N)(=O)=O)C2)c(OC(C)C)n1 [Ex 15-18, N-(2-isopropoxy-6-methylpyridin-3-yl)-3-(2-isopropylphenyl)-1-sulfamoylazetidine-3-carboxamide]
15 | 2 nM | CC(C)c1ccccc1C1(C(=O)Nc2ncc(Cl)cc2OC(F)F)CN(S(N)(=O)=O)C1 [Ex 81-3, N-(5-chloro-3-(difluoromethoxy)pyridin-2-yl)-3-(2-isopropylphenyl)-1-sulfamoylazetidine-3-carboxamide]
16 | 26 nM | COC(=O)CCS(=O)(=O)N1CCC(C(=O)Nc2ccc(C)nc2OC(F)F)(c2ccccc2C(C)C)CC1 [Ex 13-6, methyl 3-((4-((2-(difluoromethoxy)-6-methylpyridin-3-yl)carbamoyl)-4-(2-isopropylphenyl)piperidin-1-yl)sulfonyl)propanoate]
17 | 25 nM | Cc1ccc(NC(=O)C2(c3ccccc3C(C)C)CN(C(=O)c3nnn[nH]3)C2)c(OC(F)F)n1 [Ex 12-18, N-(2-(difluoromethoxy)-6-methylpyridin-3-yl)-3-(2-isopropylphenyl)-1-(1H-tetrazole-5-carbonyl)azetidine-3-carboxamide]
18 | 210 nM | Cc1ccc(NC(=O)C2(c3ccccc3C(C)C)CN(C(=O)N3CCOCC3)C2)c(OC(F)F)n1 [Ex 17-27, N-(2-(difluoromethoxy)-6-methylpyridin-3-yl)-3-(2-isopropylphenyl)-1-(morpholine-4-carbonyl)azetidine-3-carboxamide]
19 | 10 nM | Cc1ccc(NC(=O)C2(c3ccccc3C(C)C)CN(S(=O)(=O)CCC(=O)NO)C2)c(OC(F)F)n1 [Ex 13-29, N-(2-(difluoromethoxy)-6-methylpyridin-3-yl)-1-((3-(hydroxyamino)-3-oxopropyl)sulfonyl)-3-(2-isopropylphenyl)azetidine-3-carboxamide]
20 | 2 nM | COC(=O)C1(c2ncc(N3CC(C(=O)Nc4ccc(C)nc4OC(F)F)(c4ccccc4C(C)C)C3)cn2)CC1 [Ex 18-16, methyl 1-(5-(3-((2-(difluoromethoxy)-6-methylpyridin-3-yl)carbamoyl)-3-(2-isopropylphenyl)azetidin-1-yl)pyrimidin-2-yl)cyclopropane-1-carboxylate]
21 | 10 nM | CC(C)c1ccccc1C1(C(=O)Nc2cccnc2OC(F)F)CN(c2ncncc2F)C1 [Ex 18-21, N-(2-(difluoromethoxy)pyridin-3-yl)-1-(5-fluoropyrimidin-4-yl)-3-(2-isopropylphenyl)azetidine-3-carboxamide]
22 | 14 nM | Cc1ccc(NC(=O)C2(c3ccccc3C(C)C)CN(C(=O)[C@@H]3C[C@@H]3C(=O)O)C2)c(OC(F)F)n1 [Ex 12-95, (1S,2R)-2-(3-((2-(difluoromethoxy)-6-methylpyridin-3-yl)carbamoyl)-3-(2-isopropylphenyl)azetidine-1-carbonyl)cyclopropane-1-carboxylic acid]
23 | 7 nM | Cc1ccc(NC(=O)C2(c3ccccc3C(C)C)CCN(C(=O)CCC(=O)C(F)(F)F)CC2)c(OC(F)F)n1 [Ex 12-12, N-(2-(difluoromethoxy)-6-methylpyridin-3-yl)-4-(2-isopropylphenyl)-1-(5,5,5-trifluoro-4-oxopentanoyl)piperidine-4-carboxamide]
24 | 100 nM | Cc1ccc(NC(=O)C2(c3ccccc3C(C)C)CN(S(=O)(=O)c3cn[nH]c3C(=O)O)C2)c(OC(F)F)n1 [Ex 13-23, 4-((3-((2-(difluoromethoxy)-6-methylpyridin-3-yl)carbamoyl)-3-(2-isopropylphenyl)azetidin-1-yl)sulfonyl)-1H-pyrazole-5-carboxylic acid]
25 | 88 nM | Cc1cnc(NC(=O)C2(c3ccccc3C(C)C)CN(C(=O)OCC(=O)O)C2)c(OC(F)F)c1 [Ex 83-2, 2-((3-((3-(difluoromethoxy)-5-methylpyridin-2-yl)carbamoyl)-3-(2-isopropylphenyl)azetidine-1-carbonyl)oxy)acetic acid]
